Here are results for three molecules from patent publication US8999944B2, “Thioredoxin interacting protein (TXNIP) as regulator of vascular function” (University of Rochester, priority 2005, dated 2015).

The assay has as its system VCAM1. Nature of the assay: TNF-induced VCAM1 expression in HUVEC (immunoblotting). Type of assay: cell-based, human. The note with it: for TNF-induced VCAM1 expression: inhibitor at 30 μM. As to the method:
FIG. […] VCAM-1 expression was determined by immunoblotting from 3 independent experiments. Equal protein loading was confirmed with actin antibody.
To knockdown TXNIP, HUVEC were treated with small interference RNA (siRNA) against human TXNIP coding region. The target sequences were: 5′-AAGCCGTTAGGATCCTGGCTT (SEQ ID NO: 1) for human TXNIP and 5′-AATTCTCCGAACGTGTCACGT-3′ (SEQ ID NO: 2) for control non-silencing siRNA, respectively (Qiagen-Xeragon). HUVEC at >90% confluence in 60-mm dishes were used for transfection. […] This mixture was added to HUVEC in normal culture media (2 ml) and cells were incubated for 1.5 h. The medium was changed and cells recovered for 24 h. The transfection was repeated and after 24 h, cells were used for experiments.
I.P. and I.B. experiments were performed as described previously (Surapisitchat et al., “Fluid Shear Stress Inhibits TNF-Alpha Activation of JNK but not ERK½ or p38 in Human Umbilical Vein Endothelial Cells: Inhibitory Crosstalk Among MAPK Family Members,” Proc Natl Acad Sci USA 98:6476-6481 (2001); Liu et al., “Laminar Flow Inhibits TNF-Induced ASK1 Activation by Preventing Dissociation of ASK1 From its Inhibitor 14-3-3,” J Clin Invest 107:917-923 (2001); Yamawaki et al., “Chronic Physiological Shear Stress Inhibits Tumor Necrosis Factor-Induced Proinflammatory Responses in Rabbit Aorta Perfused ex vivo,” Circulation 108:1619-1625 (2003), each of which is hereby incorporated by reference in its entirety). The resulting autoradiograms were analyzed with NIH Image 1.60. Experiments were performed at least three times and equal loading of protein was ensured by measuring actin expression.
(In general: Immunoblotting shows a protein as a band on a membrane.)

As to `C[S+]([O-])c1ccc(-c2nc(-c3ccncc3)c(-c3ccc(F)cc3)[nH]2)cc1` (stereo not drawn) [SB203580], the “TNF-induced VCAM1 expression” value is recorded as “almost completely blocked”. Regarding `Oc1c2ccccc2c2c3c(cccc13)N=N2` [SP600125], the “effect on VCAM1 expression” value (inhibitor at 10 μM, n=4) is “no effect”. Consider `COc1cccc(-c2cc(=O)c3ccccc3o2)c1N` [PD98059], for which the “TNF-induced VCAM1 expression” value is given as “not”.
